In patent US20030207813A1, “Retroviral protease inhibitor combinations” (priority 1995, published 2003):
Values after ≈ are worked out from the molar mass of the structure shown.

Legend:
NL4(P37-538) = assay: Viral isolate resistance assay per Markowitz et al., NL4(P37-538); type: cell-based, HIV-1; settings: Human immunodeficiency virus 1, read-out: Virus Isolate (EC50 nM) NL4(P37-538)
From the text: (§1) RF represents the HIV-1 strain HIV-LRF and RFR represents a mixture of resistant strains obtained by selection of RF against the compound of Example 1. RFR comprises a mixture of viral strains having protease genotypes of G48V (14/40 clones); G48V, V82A (18/40 clones); G48V, L90S (2/40 clones); G48V, 154T, V82A (1/40 clones); G48M (1/40 clones); G48V, Q61H (1/40 clones); V13I, G48V (1/40 clones); G48V, F53L, V82A (1/40 clones); and G48V, V82A, C95Y (1/40 clones). RFR2 represents a mixture of resistant strains obtained by cloning RFR by three rounds of growth at limiting dilution. RFR2 comprises a mixture of viral strains having protease genotypes of G48V, V82A (13/15 clones); G17E, G48V, V82A (1/15 clones); and G48V, V82A, N37D, N88D (1/15 clones). RFRR represents a mixture of resistant strains obtained by selection of RF against the compounds of Examples 1 and 2 and then cloning by three rounds of growth at limiting dilution. RFRR comprises a mixture of viral strains having protease genotypes of G48V, 154T, L63P, V82A (7/9 clones); G48V, 154T, L63P, V82A, N88S (1/9 clones); and G48V, 154T, L63P, G73M, V82A (1/9 clones). SF162 represents the HIV-1 strain SF-162 and SF162R represents a mixture of resistant strains obtained by selection of SF162 against the compound of Example 1. SF162R comprises a mixture of viral strains having protease genotypes of M461, F53L, L63P, A71V, N88D (2/3 clones); and M46I, F53L, L63P, A71V, N88D, Q92R (1/3 clones). 89-959 represents the HIV-1 strain 89-959 and 89-959R represents a mixture of resistant strains obtained by selection of 89-959 against the compound of Example 2. 89-959R comprises a mixture of viral strains having protease genotypes of N88S (4/5 clones); and D25N, T26A, D30N, D37N, R41K, G73D, R87K, N88S (1/4 clones). NL4 represents the HIV-1 strain HIV-1NL4-3. NL4(G48V) represents a strain having a synthetically generated site-directed mutation in the protease from glycine to valine at amino acid position number 48. NL4(I84V) represents a strain having a synthetically generated site-directed mutation in the protease from isoleucine to valine at amino acid position number 84. NL4(R8Q,M46I) represents a strain having synthetically generated site-directed mutations in the protease from arginine to glutamine at amino acid position number 8 and methionine to isoleucine at amino acid position number 46. NL4(P22-538) represents a mixture of resistant strains obtained by selection of HIV-1NL4-3 against the compound of Example 10 after 22 passages comprising protease genotypes M46I, L63P, A71V, V82F, I84V (4/10); M46I, L63P, V82F, I84V (3/10); and M46I, A71V, V82F, I84V (3/10). NL4(P37-538) represents resistant strains obtained by selection of HIV-1NL4-3 against the compound of Example 10 after 37 passages comprising protease genotype M46I, L63P, A71V, 184A. NL4(538/524) represents resistant strains obtained by selection of NL4(P22-538) against the compound of Example 5 after 24 passages comprising protease genotype M46I, L63P, A71V, 184A. NL4(538/P7-AG) represents a mixture of resistant strains obtained by selection of NL4(P22-538) against the compound of Example 12 after 7 passages comprising protease genotypes M46I, L63P, A71V, 184A; and V321, V82I. NL4(538/P24-AG) represents resistant strains obtained by selection of NL4(P22-538) against the compound of Example 12 after 24 passages comprising protease genotype M46I, L63P, A71V, 184A. NLA(P19-003) represents resistant strains obtained by selection of HIV-1^NL4-3 against the compound of Example 9 after 19 passages comprising protease genotype R8K, M46I. NL4(P34-003) represents resistant strains obtained by selection of HIV-1^NL4-3 against the compound of Example 9 after 34 passages comprising protease genotype R8K, M46I, L63P, A71V, L90M.
The viral isolate resistance results summarized in Tables 7-11 were generated according to the assay procedures described by Markowitz et al., Journal of Virology, vol. […]

[1] = test system: RFRR (resistant strains selected from RF against Examples 1 and 2); assay: CEM-T4 cell infection assay, reverse transcriptase readout, resistant isolate RFRR; type: cell-based, HIV-1; settings: Human immunodeficiency virus 1, 168 h, Table 6, CEM-T4 cells, 7 days, read-out: Virus Isolate (EC50 ng/mL) RFRR
From the text: as §1
(§2) The viral isolate resistance results summarized in Tables 4-6 were generated according to the following assay procedure or minor modifications thereof. Assays are performed in 96-well tissue culture plates. […]

HIV-1RF = assay: CEM-T4 cell infection assay, reverse transcriptase readout, isolate RF; type: cell-based; settings: Human immunodeficiency virus 1, CEM-T4, 168 h, Table 6, CEM-T4 cells, 7 days, read-out: Virus Isolate (EC50 ng/mL) RF
From the text: as §1, §2

NL4(P22-538) = assay: Viral isolate resistance assay per Markowitz et al., NL4(P22-538); type: cell-based, HIV-1; settings: Human immunodeficiency virus 1, read-out: Virus Isolate (EC50 nM) NL4(P22-538)
From the text: as §1, with “NLA(P19-003) represents resistant strains obtained by selection of HIV-1^NL4-3 against the compound of Example 9 after 19 passages comprising protease genotype R8K, M46I. NL4(P34-003) represents resistant strains obtained by selection of HIV-1^NL4-3 against the compound of Example 9 after 34 passages comprising protease genotype R8K, M46I, L63P, A71V, L90M.” left out

HIV-1NL4-3 = assay: microbe, parasite or virus in culture; type: cell-based; settings: Human immunodeficiency virus 1, NL4
From the text: RF represents the HIV-1 strain HIV-LRF and RFR represents a mixture of resistant strains obtained by selection of RF against the compound of Example 1. […] RFR2 represents a mixture of resistant strains obtained by cloning RFR by three rounds of growth at limiting dilution. […] RFRR represents a mixture of resistant strains obtained by selection of RF against the compounds of Examples 1 and 2 and then cloning by three rounds of growth at limiting dilution. […] SF162 represents the HIV-1 strain SF-162 and SF162R represents a mixture of resistant strains obtained by selection of SF162 against the compound of Example 1. […] 89-959 represents the HIV-1 strain 89-959 and 89-959R represents a mixture of resistant strains obtained by selection of 89-959 against the compound of Example 2. […] NL4 represents the HIV-1 strain HIV-1NL4-3. NL4(G48V) represents a strain having a synthetically generated site-directed mutation in the protease from glycine to valine at amino acid position number 48. NL4(I84V) represents a strain having a synthetically generated site-directed mutation in the protease from isoleucine to valine at amino acid position number 84. NL4(R8Q,M46I) represents a strain having synthetically generated site-directed mutations in the protease from arginine to glutamine at amino acid position number 8 and methionine to isoleucine at amino acid position number 46.

[2] = test system: RFR2 (RFR cloned by three rounds of limiting dilution); assay: CEM-T4 cell infection assay, reverse transcriptase readout, resistant isolate RFR2; type: cell-based, HIV-1; settings: Human immunodeficiency virus 1, 168 h, Table 6, CEM-T4 cells, 7 days, read-out: Virus Isolate (EC50 ng/mL) RFR2
From the text: as §1, §2

CC(C)CN(C[C@@H](O)[C@H](Cc1ccccc1)NC(=O)[C@H](C)CS(C)(=O)=O)S(=O)(=O)c1ccc2c(c1)OCO2 [Example 15, N-[2R-hydroxy-3-[(2-methylpropyl)[(1,3-benzodioxol-5-yl)sulfonyl]amino]-1S-(phenylmethyl)propyl]2S-methyl-3-(methylsulfonyl)propanamide]
EC50 (NL4(P37-538)): 1000 nM | EC50 [1]: 21 ng/mL (≈ 0.0369 µM) | EC50 (HIV-1RF): 5 ng/mL (≈ 0.00879 µM) | EC50 (NL4(P22-538)): 400 nM | EC90 (HIV-1NL4-3; Table 7, EC90, read-out: Virus Isolate (EC90 nM) NL4): 60 nM | EC50 (HIV-1NL4-3; Table 9, read-out: Virus Isolate (EC50 nM) NL4): 8 nM | EC50 [2]: 9 ng/mL (≈ 0.0158 µM)
